Results taken from PMC6494879, “Drug resistance emergence in macaques administered cabotegravir long-acting for pre-exposure prophylaxis during acute SHIV infection” (Nature Communications, 2019).
Where two headings read alike, the source gives them in different places.

How the values were obtained:
[1] = system: RT-SHIV; test: Plasma SHIV RNA (RT-PCR) in RT-SHIV-infected macaques treated with CAB LA; conditions: for Median VL treated: median of treated macaques
Procedure: (§1) CAB LA (200 mg/mL injectable stock aqueous suspension) was given at a dose of 50 mg kg^−1 under anesthesia by intramuscular injection into the quadriceps. Volumes greater than 1.0 mL were divided into two injection sites.

[2] = system: SIV integrase A122T (SIV IN RTV pseudovirus); test: organism not typed; assay type: cell-based
[3] = system: SIV integrase I72T (SIV IN RTV pseudovirus); test: organism not typed; assay type: cell-based
[4] = system: SIV integrase WT (SIV IN RTV pseudovirus); test: organism not typed; assay type: cell-based
[5] = ECLAIR trial; cited from earlier work
[6] = system: HIV-1; conditions: read-out: 50% inhibitory concentration (IC50); cited from earlier work
[7] = system: SIV integrase I110V (SIV IN RTV pseudovirus); test: organism not typed; assay type: cell-based
[8] = time course, day given in the Days column, CAB LA 50 mg/kg i.m. days 11, 39, 67, LLOQ 10 ng ml^-1
Procedure: as §1

C[C@H]1CO[C@@H]2Cn3cc(C(=O)NCc4ccc(F)cc4F)c(=O)c(O)c3C(=O)N12 [CAB, cabotegravir]
SHIV RNA copies/ml ([1]; macaque CH54, day 57): 158 copies/ml | SHIV RNA copies/ml ([1]; macaque CH54, day 60): 2633 copies/ml | SHIV RNA copies/ml ([1]; macaque CH54, day 64): 1132 copies/ml | SHIV RNA copies/ml ([1]; macaque CH54, day 67): 4979 copies/ml | SHIV RNA copies/ml ([1]; macaque CJ92, day 14): 87372 copies/ml | SHIV RNA copies/ml ([1]; macaque CJ92, day 16): 9159 copies/ml | SHIV RNA copies/ml ([1]; macaque CJ92, day 18): 1727 copies/ml | SHIV RNA copies/ml ([1]; macaque CJ92, day 22): 101 copies/ml | SHIV RNA copies/ml ([1]; macaque CJ92, day 25): 49 copies/ml | SHIV RNA copies/ml ([1]; macaque CJ92, day 29): 423 copies/ml | SHIV RNA copies/ml ([1]; macaque CJ92, day 32): 300 copies/ml | SHIV RNA copies/ml ([1]; macaque CJ92, day 36): 57 copies/ml | SHIV RNA copies/ml ([1]; macaque CJ92, day 39): 270 copies/ml | SHIV RNA copies/ml ([1]; macaque CJ92, day 43): 49 copies/ml | SHIV RNA copies/ml ([1]; macaque CJ92, day 46): 108 copies/ml | SHIV RNA copies/ml ([1]; macaque CJ92, day 50): 163 copies/ml | SHIV RNA copies/ml ([1]; macaque CJ92, day 53): 49 copies/ml | SHIV RNA copies/ml ([1]; macaque CJ92, day 57): 49 copies/ml | SHIV RNA copies/ml ([1]; macaque CJ92, day 60): 49 copies/ml | SHIV RNA copies/ml ([1]; macaque CJ92, day 64): 49 copies/ml | SHIV RNA copies/ml ([1]; macaque CJ92, day 67): 50 copies/ml | Median VL treated ([1]; day 0): 49 copies/ml | Median VL treated ([1]; day 2): 21683 copies/ml | Median VL treated ([1]; day 4): 196903 copies/ml | Median VL treated ([1]; day 7): 674920 copies/ml | Median VL treated ([1]; day 9): 6944678 copies/ml | Median VL treated ([1]; day 11): 4288688 copies/ml | Median VL treated ([1]; day 14): 167021 copies/ml | Median VL treated ([1]; day 16): 25119 copies/ml | Median VL treated ([1]; day 18): 5906 copies/ml | Median VL treated ([1]; day 22): 688 copies/ml | Median VL treated ([1]; day 25): 322 copies/ml | Median VL treated ([1]; day 29): 1263 copies/ml | Median VL treated ([1]; day 32): 345 copies/ml | Median VL treated ([1]; day 36): 160 copies/ml | Median VL treated ([1]; day 39): 293 copies/ml | Median VL treated ([1]; day 43): 192 copies/ml | Median VL treated ([1]; day 46): 92 copies/ml | Median VL treated ([1]; day 50): 229 copies/ml | Median VL treated ([1]; day 53): 60 copies/ml | Median VL treated ([1]; day 57): 91 copies/ml | Median VL treated ([1]; day 60): 69 copies/ml | Median VL treated ([1]; day 64): 429 copies/ml | Median VL treated ([1]; day 67): 85 copies/ml | Median VL treated ([1]; day 71): 205 copies/ml | Median VL treated ([1]; day 74): 49 copies/ml | Median VL treated ([1]; day 78): 76 copies/ml | Median VL treated ([1]; day 81): 64 copies/ml | Median VL treated ([1]; day 85): 85 copies/ml | Median VL treated ([1]; day 88): 61 copies/ml | Median VL treated ([1]; day 92): 59 copies/ml | Median VL treated ([1]; day 95): 80 copies/ml | Median VL treated ([1]; day 102): 49 copies/ml | Median VL treated ([1]; day 106): 61 copies/ml | Median VL treated ([1]; day 115): 2657 copies/ml | Median VL treated ([1]; day 120): 15539 copies/ml | Median VL treated ([1]; day 134): 2817 copies/ml | Median VL treated ([1]; day 143): 2103 copies/ml | Median VL treated ([1]; day 148): 2164 copies/ml | Median VL treated ([1]; day 155): 1667 copies/ml | Median VL treated ([1]; day 162): 1714 copies/ml | Median VL treated ([1]; day 170): 1307 copies/ml | Median VL treated ([1]; day 176): 558 copies/ml | Median VL treated ([1]; day 183): 4928 copies/ml | Median VL treated ([1]; day 190): 6516 copies/ml | Median VL treated ([1]; day 197): 8692 copies/ml | Median VL treated ([1]; day 204): 9657 copies/ml | EC50 ([2]; HEK293): 1.51 nM | fold-change relative to wild type integrase ([2]; {}): 1.3 fold | EC50 ([3]; HEK293): 0.96 nM | fold-change relative to wild type integrase ([3]; {}): 0.8 fold | EC50 ([4]; HEK293): 1.19 nM | fold-change relative to wild type integrase ([4]; WT SIV integrase): 1 fold | subjects with CAB still detectable 52 weeks after the last injection [5]: 14% | IC50 [6]: ~0.22 nM | EC50 ([7]; HEK293): 1.27 nM | fold-change relative to wild type integrase ([7]; {}): 1.1 fold | Vaginal fluid CAB concentration in treated macaques ([8]; macaque 10D181): 0.009 µg/mL | Vaginal fluid CAB concentration in treated macaques ([8]; macaque 33996): 0.009 µg/mL
